Tests used:
Format in all cases: in vivo
[1] = test system: ducksalad (Heteranthera limosa); assay: Test B flooded paddy test, visual plant response rating 0-100; details: 250 g ai/ha, Flood, applied to paddy water, evaluated after 13 days
In short: (§1)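 Visual scores versus untreated controls were recorded 13 days after treatment of greenhouse-held plants. At the 2-leaf stage, pots were flooded 3 cm above the soil surface and compounds added straight to the water.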

[2] = test system: barnyardgrass (Echinochloa crusgalli); assay: as above; details: 250 g ai/ha, Flood, applied to paddy water, evaluated after 13 days
In short: as §1

[3] = test system: rice (Oryza sativa); assay: as above; details: 250 g ai/ha, Flood, applied to paddy water, evaluated after 13 days
In short: as §1

[4] = test system: sedge, umbrella (small-flower umbrella sedge, Cyperus difformis); assay: as above; details: 250 g ai/ha, Flood, applied to paddy water, evaluated after 13 days
In short: as §1

[5] = test system: kochia (Bassia scoparia); assay: Test A preemergence soil spray, visual injury rating 0-100; details: 10 days
In short: (§2)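 Compounds formulated in a non-phytotoxic solvent with surfactant are sprayed onto soil of freshly planted loam-sand pots ahead of emergence, or onto emerged plants 2-10 cm tall. After a 10-day greenhouse period, each species is scored visually for injury against untreated controls.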

[6] = test system: wheat (Triticum aestivum); assay: as above; details: 10 days
In short: as §2

[7] = test system: barnyardgrass (Echinochloa crus-galli); assay: as above; details: 10 days
In short: as §2

[8] = test system: ragweed (common ragweed, Ambrosia artemisiifolia); assay: as above; details: 10 days
In short: as §2

[9] = test system: blackgrass (Alopecurus myosuroides); assay: as above; details: 10 days
In short: as §2

[10] = test system: oat, wild (wild oat, Avena fatua); assay: as above; details: 10 days
In short: as §2

[11] = test system: soybean (Glycine max); assay: as above; details: 10 days
In short: as §2

[12] = test system: corn (Zea mays); assay: as above; details: 10 days
In short: as §2

[13] = test system: palmer (palmer amaranth, palmer pigweed, Amaranthus palmeri); assay: as above; details: 10 days
In short: as §2

[14] = test system: green foxtail (Setaria viridis); assay: as above; details: 10 days
In short: as §2

[15] = test system: ryegrass, Italian (italian ryegrass, Lolium multiflorum); assay: as above; details: 10 days
In short: as §2

[16] = test system: kochia (Bassia scoparia); assay: Test A postemergence application, visual injury rating 0-100
In short: as §2

[17] = test system: wheat (Triticum aestivum); assay: as above
In short: as §2

[18] = test system: barnyardgrass (Echinochloa crus-galli); assay: as above
In short: as §2

[19] = test system: ragweed (common ragweed, Ambrosia artemisiifolia); assay: as above
In short: as §2

[20] = test system: galium (catchweed bedstraw, Galium aparine); assay: as above; details: Postemergence, 16 g ai/ha, greenhouse 10 days; 0 no effect, 100 complete control
In short: as §2

[21] = test system: horseweed (Erigeron canadensis); assay: as above
In short: as §2

[22] = test system: blackgrass (Alopecurus myosuroides); assay: as above
In short: as §2

[23] = test system: oat, wild (wild oat, Avena fatua); assay: as above
In short: as §2

[24] = test system: soybean (Glycine max); assay: as above
In short: as §2

[25] = test system: corn (Zea mays); assay: as above
In short: as §2

[26] = test system: palmer (palmer amaranth, palmer pigweed, Amaranthus palmeri); assay: as above
In short: as §2

[27] = test system: green foxtail (Setaria viridis); assay: as above
In short: as §2

[28] = test system: ryegrass, Italian (italian ryegrass, Lolium multiflorum); assay: as above
In short: as §2

[29] = 62 g ai/ha, 0 = no effect, 100 = complete control
[30] = 62 g ai/ha, postemergence, 10 days, 0 = no effect, 100 = complete control
[31] = Postemergence, 16 g ai/ha, greenhouse 10 days, 0 no effect, 100 complete control

## CSCCOC(=O)C1=CCC(NC(=O)C2(C)CN(c3cc(Cl)cc(Cl)c3)C(=O)O2)C1 (stereo not drawn) [Compound 146]
[1]
  Plant response rating, Ducksalad (0 to 100 scale, 0 is no effect and 100 is complete control): 0
[2]
  Plant response rating, Barnyardgrass (0 to 100 scale, 0 is no effect and 100 is complete control): 0
[3]
  Plant response rating, Rice (0 to 100 scale, 0 is no effect and 100 is complete control): 0
[4]
  Plant response rating, Sedge, Umbrella (0 to 100 scale, 0 is no effect and 100 is complete control): 0
[5]; 16 g ai/ha, 0 to 100 scale
  Kochia plant response rating: 0
[5]; [29]
  Kochia plant response rating (0-100): 0
[6]; 16 g ai/ha, 0 to 100 scale
  Wheat plant response rating: 0
[6]; [29]
  Wheat plant response rating (0-100): 0
[7]; 16 g ai/ha, 0 to 100 scale
  Barnyardgrass plant response rating: 0
[7]; [29]
  Barnyardgrass plant response rating (0-100): 0
[8]; 16 g ai/ha, 0 to 100 scale
  Ragweed plant response rating: 0
[8]; [29]
  Ragweed plant response rating (0-100): 0
[9]; 16 g ai/ha, 0 to 100 scale
  Blackgrass plant response rating: 0
[9]; [29]
  Blackgrass plant response rating (0-100): 0
[10]; 16 g ai/ha, 0 to 100 scale
  Oat, Wild plant response rating: 0
[10]; [29]
  Oat, Wild plant response rating (0-100): 0
[11]; 16 g ai/ha, 0 to 100 scale
  Soybean plant response rating: 0
[11]; [29]
  Soybean plant response rating (0-100): 0
[12]; 16 g ai/ha, 0 to 100 scale
  Corn plant response rating: 0
[12]; [29]
  Corn plant response rating (0-100): 0
[13]; 16 g ai/ha, 0 to 100 scale
  Pigweed, Palmer plant response rating: 0
[13]; [29]
  Pigweed, Palmer plant response rating (0-100): 0
[14]; 16 g ai/ha, 0 to 100 scale
  Foxtail, Green plant response rating: 0
[14]; [29]
  Foxtail, Green plant response rating (0-100): 0
[15]; 16 g ai/ha, 0 to 100 scale
  Ryegrass, Italian plant response rating: 0
[15]; [29]
  Ryegrass, Italian plant response rating (0-100): 20
[16]; [30]
  Kochia plant response rating (0-100): 0
[16]; [31]
  Kochia plant response rating (0 to 100 scale): 0
[17]; [30]
  Wheat plant response rating (0-100): 0
[17]; [31]
  Wheat plant response rating (0 to 100 scale): 0
[18]; [30]
  Barnyardgrass plant response rating (0-100): 20
[18]; [31]
  Barnyardgrass plant response rating (0 to 100 scale): 0
[19]; [30]
  Ragweed plant response rating (0-100): 0
[19]; [31]
  Ragweed plant response rating (0 to 100 scale): 0
[20]
  Galium plant response rating (0 to 100 scale): 0
[21]; [30]
  Horseweed plant response rating (0-100): 10
[21]; [31]
  Horseweed plant response rating (0 to 100 scale): 0
[22]; [30]
  Blackgrass plant response rating (0-100): 0
[22]; [31]
  Blackgrass plant response rating (0 to 100 scale): 0
[23]; [30]
  Oat, Wild plant response rating (0-100): 0
[23]; [31]
  Oat, Wild plant response rating (0 to 100 scale): 0
[24]; [30]
  Soybean plant response rating (0-100): 0
[24]; [31]
  Soybean plant response rating (0 to 100 scale): 0
[25]; [30]
  Corn plant response rating (0-100): 0
[25]; [31]
  Corn plant response rating (0 to 100 scale): 0
[26]; [30]
  Pigweed, Palmer plant response rating (0-100): 0
[26]; [31]
  Pigweed, Palmer plant response rating (0 to 100 scale): 0
[27]; [30]
  Foxtail, Green plant response rating (0-100): 0
[27]; [31]
  Foxtail, Green plant response rating (0 to 100 scale): 0
[28]; [30]
  Ryegrass, Italian plant response rating (0-100): 0
[28]; [31]
  Ryegrass, Italian plant response rating (0 to 100 scale): 0
